Source: patent publication US20190330290A1, “PHARMACEUTICAL ASSOCIATION OF GROWTH FACTOR RECEPTOR AGONIST AND ADHESION PROTEIN INHIBITOR FOR CONVERTING A NEOPLASTIC CELL INTO A NON-NEOPLASTIC CELL AND USES THEREOF” (HISTIDE AG, priority 2015, published 2019)
Where no end group is shown, it is not given here.

Key:
pRB = pRB phosphorylation level, immunofluorescence staining quantified with ImageJ; assay type: cell-based, human
Method: (§1) The cells were first fixed for 20 min with 4% paraformaldehyde/PBS at 4° C. After fixation, the cells were permeabilized in PBS containing 1% Triton X-100 for 15 min. Protein immunofluorescent visualization was performed by first treating the cells with 1% (v/v) specific monoclonal antibodies for 1 hour at 37° C. Then the samples were incubated with Alexa fluor® 568 or 647 (F(ab′)2 fragment of IgG(H+L)) during 30 min at room temperature. The cell nuclei were counterstained in 20 ng/mL DAPI for 10 min at room temperature.
(§2) For this type of quantification the freeware image analysis ImageJ® software was used. The raw image was first converted to an 8-bit file, and then the unsharp mask feature was used (settings 1:0.2) to remove the image background (rolling ball radius 10). After smoothing, the resulting image, which appears similar to the original photomicrograph but with minimal background, was then converted to a binary image by setting a threshold. Threshold values were determined empirically by selecting a setting, which gave the most accurate binary image for a subset of randomly selected photomicrographs. The cell area was determined by manual delineation on raw fluorescent images. Total contact area and mean contact area per cell were calculated by “analyse particules” in ImageJ®. A minimum of 50 cells per condition were analyzed.
(§3) Neoplastic cells (in this example osteosarcoma cells) were cultured in the presence of pharmaceutical associations of the invention. A rapid (24 hours) decrease of the tumor markers was observed (FIG. 5). The adhesion checkpoint then activates the tumor suppressor proteins p53 and pRB.
(§4) The alginate used in these experiments was the Ultra Pure Sodium alginate powder PRONOVA UP MVG from Novamatrix (FMC Biopolymers, cat. no. 4200106). To a 1% MillQ water (1 g per 100 mL) alginate solution were added the cyclic GFR-binding peptide and the SiRNA molecules. The resulting mixture was then added to the cell cultures for 48 h.

p53 = p53 protein expression level, immunofluorescence staining quantified with ImageJ; assay type: cell-based, human; conditions: MG63 cells; alginate matrix with cyclic GFR-binding peptide + SiRNA Integrin alpha 3 + SiRNA Integrin beta 1; 48 h; 400 ng/mL GFR-binding compound
Method: as §1, §2, §3, §4

[1] = MG63 cells, alginate matrix with cyclic GFR-binding peptide + SiRNA Integrin alpha 3 + SiRNA Integrin beta 1, 48 h, 400 ng/mL GFR-binding compound
[2] = human osteosarcoma cells, MG63, pharmaceutical association containing the GFR-binding compound (Table 6)

AAAAAAAAADAANNVVGIPEPSSVSQELSATSMLYYDAANNVV (also: cyclic) [SEQ ID NO: 4730]
pRB (%) (pRB; [1]): 10% | P53 (%) (p53): 37%

AAAAAAAAADAANNVVKIPKASSSRVRLSSLSTLFFDAANNVV (also: cyclic) [SEQ ID NO: 4727]
pRB (%) (pRB; [1]): 11% | P53 (%) (p53): 32%

AAAAAAAAADAANNVVKIPKASSTQVRLRSVKTAKVDAANNVV (also: cyclic) [SEQ ID NO: 4740]
pRB (%) (pRB; [1]): 15% | P53 (%) (p53): 52%

AAAAAAAAADENEKVVAASKASSSRVELRSVKIAKVDDSSNVI (also: cyclic) [SEQ ID NO: 4723]
pRB (%) (pRB; [1]): 8% | P53 (%) (p53): 50%

AAAAAAAAADENEKVVAASKASSVPEKMRPVQTRKIDDSSNVI (also: cyclic) [SEQ ID NO: 4741]
pRB (%) (pRB; [1]): 15% | P53 (%) (p53): 49%

AAAAAAAAADENEKVVAASKASSVPQEEEPLPMVYYDAANNVV (also: cyclic) [SEQ ID NO: 4721]
pRB (%) (pRB; [1]): 12% | P53 (%) (p53): 39%

AAAAAAAAADENEKVVKIPKASSVPTKMKPLSVLYVDDSSNVI (also: cyclic (mode not given here)) [SEQ ID NO: 4734]
pRB (%) (pRB; [1]): 12% | P53 (%) (p53): 50%

AAAAAAAAADENEKVVRVPSTSSVPAEESNITVQIMDDSSNVI (also: cyclic (mode not given here)) [SEQ ID NO: 4738]
pRB (%) (pRB; [1]): 16% | P53 (%) (p53): 55%

ASASPSSVSQDLSSLSILFF (Non-cyclic GFR-binding peptide) [SEQ ID NO: 58]
pRB (%) (pRB; [2]): 15%

GGGGGGGGGDDSSNVIAASKASSTPTDLNAISTLYFDDSSNVI (also: cyclic (mode not given here)) [SEQ ID NO: 4728]
pRB (%) (pRB; [1]): 15% | P53 (%) (p53): 33%

GGGGGGGGGDDSSNVIGIPEPSSAPTRLEPISMLYLDENEKVV (also: cyclic (mode not given here)) [SEQ ID NO: 4731]
pRB (%) (pRB; [1]): 8% | P53 (%) (p53): 40%

GGGGGGGGGDDSSNVIKIPKASSVPTGGSNITVQIMDDSSNVI (also: cyclic (mode not given here)) [SEQ ID NO: 4722]
pRB (%) (pRB; [1]): 17% | P53 (%) (p53): 51%

GGGGGGGGGDDSSNVIRVPSTSSAPTKMNAISMLYFDENEKVV (also: cyclic (mode not given here)) [SEQ ID NO: 4719]
pRB (%) (pRB; [1]): 15% | P53 (%) (p53): 44%

GGGGGGGGGDDSSNVIRVPSTSSVPTGQSAISTLYLDDSSNVI (also: cyclic (mode not given here)) [SEQ ID NO: 4718]
pRB (%) (pRB; [1]): 10% | P53 (%) (p53): 40%

GGGGGGGGGDDSSNVISTPPTSSSRVQLSAISMLYLDDSSNVI (also: cyclic (mode not given here)) [SEQ ID NO: 4725]
pRB (%) (pRB; [1]): 6% | P53 (%) (p53): 29%

GGGGGGGGGDDSSNVISTPPTSSVSQKMKPLSILYVDDSSNVI (also: cyclic (mode not given here)) [SEQ ID NO: 4735]
pRB (%) (pRB; [1]): 8% | P53 (%) (p53): 51%

GGGGGGGGGDENEKVVGIPEPSSAPVDLKPLSTLYVDENEKVV (also: cyclic (mode not given here)) [SEQ ID NO: 4720]
pRB (%) (pRB; [1]): 9% | P53 (%) (p53): 38%

GGGGGGGGGDENEKVVKIPKASSTQVRLRPVQIRKIDAANNVV (also: cyclic (mode not given here)) [SEQ ID NO: 4724]
pRB (%) (pRB; [1]): 7% | P53 (%) (p53): 47%

GGGGGGGGGDENEKVVKIPKASSVSQQLEPISTLYLDENEKVV (also: cyclic (mode not given here)) [SEQ ID NO: 4732]
pRB (%) (pRB; [1]): 9% | P53 (%) (p53): 42%

GGGGGGGGGDENEKVVNDEGLESVPEDLSSLSVLFFDENEKVV (also: cyclic (mode not given here)) [SEQ ID NO: 4717]
pRB (%) (pRB; [1]): 12% | P53 (%) (p53): 42%

GGGGGGGGGDENEKVVRVPSTSSTQVDLNAISVLYFDENEKVV (also: cyclic (mode not given here)) [SEQ ID NO: 4729]
pRB (%) (pRB; [1]): 13% | P53 (%) (p53): 38%

GGGGGGGGGDENEKVVRVPSTSSTQVKMSAISMLYLDENEKVV (also: cyclic (mode not given here)) [SEQ ID NO: 4726]
pRB (%) (pRB; [1]): 10% | P53 (%) (p53): 32%

GGGGGGGGGDENEKVVSTPPTSSVPTEVSPINTLYFDENEKVV (also: cyclic (mode not given here)) [SEQ ID NO: 4733]
pRB (%) (pRB; [1]): 17% | P53 (%) (p53): 38%

GGGGGGGGGFDNDENVVAASKASSVPQRLRSVKVAKVFDNDENVV (also: cyclic (mode not given here)) [SEQ ID NO: 4739]
pRB (%) (pRB; [1]): 14% | P53 (%) (p53): 51%

GGGGGGGGGFDNDENVVGIPEPSSAPVDMRPVQIRKIFDNDENVV (also: cyclic (mode not given here)) [SEQ ID NO: 4742]
pRB (%) (pRB; [1]): 14% | P53 (%) (p53): 46%

GGGGGGGGGFDNDENVVRVPSTSSVPEKMEPLTMLYYFDNDENVV (also: cyclic (mode not given here)) [SEQ ID NO: 4736]
pRB (%) (pRB; [1]): 9% | P53 (%) (p53): 47%

GGGGGGGGGFDNDENVVSTPPTSSTPTKMSNITTQIMFDNDENVV (also: cyclic (mode not given here)) [SEQ ID NO: 4737]
pRB (%) (pRB; [1]): 18% | P53 (%) (p53): 53%

NDEGLESVPTEERSVKVAKV (Non-cyclic GFR-binding peptide) [SEQ ID NO: 63]
pRB (%) (pRB; [2]): 22%

NDEGLESVPTEESAISMLYL (Non-cyclic GFR-binding peptide) [SEQ ID NO: 56]
pRB (%) (pRB; [2]): 18%

SIPKASSTPTELSPINMLYF (Non-cyclic GFR-binding peptide) [SEQ ID NO: 54]
pRB (%) (pRB; [2]): 23%

SSVKSQPSRVHHKPLSMLYV (Non-cyclic GFR-binding peptide) [SEQ ID NO: 62]
pRB (%) (pRB; [2]): 18%

SSVKSQPSRVHHSPISILFI (Non-cyclic GFR-binding peptide) [SEQ ID NO: 57]
pRB (%) (pRB; [2]): 17%

VVPKPSSAPTQLEPISILYL (Non-cyclic GFR-binding peptide) [SEQ ID NO: 59]
pRB (%) (pRB; [2]): 21%
